Laboratory results from ChEMBL document CHEMBL4152353, “Synthesis of DNA interactive C3-trans-cinnamide linked β-carboline conjugates as potential cytotoxic and DNA topoisomerase I inhibitors” (Bioorg Med Chem, 2018).
pIC50: −log10 of the molar value. The source made the active and inactive calls. The calls are words filed in the database; no cut-off is given here.

Key:
HeLa = test: Cytotoxicity against human HeLa cells after 48 hrs by MTT assay; assay type: functional, cell-based
NIH3T3 [1] = test: Cytotoxicity against mouse NIH/3T3 cells after 48 hrs by MTT assay; assay type: cell-based; conditions: NIH3T3, 48 h
MCF7 [2] = test: Cytotoxicity against human MCF7 cells after 48 hrs by MTT assay; assay type: functional, cell-based; conditions: MCF7, 48 h
A549 = test: Cytotoxicity against human A549 cells after 48 hrs by MTT assay; assay type: functional, cell-based; conditions: A549, 48 h
B16 = test: Cytotoxicity against mouse B16 cells after 48 hrs by MTT assay; assay type: functional, cell-based; conditions: B16, 48 h
Calf thymus DNA [3] = test: Binding affinity to calf thymus DNA assessed as increase in viscosity at 15 uM by viscometric method; assay type: nucleic-acid assay; conditions: Bos taurus
MCF7 [4] = test: Cell cycle arrest in human MCF7 cells assessed as accumulation at S-phase at 0.5 uM after 48 hrs by propidium iodide staining based flow cytometry (reference value: 15.64%); assay type: functional
MCF7 [5] = test: Cell cycle arrest in human MCF7 cells assessed as accumulation at G2/M-phase at 1 uM after 48 hrs by propidium iodide staining based flow cytometry (reference value: 33.65%); assay type: functional
Calf thymus DNA [6] = test: Binding affinity to calf thymus DNA assessed as maximum absorption peak at 50 uM by UV-Vis absorption spectrophotometric method; assay type: nucleic-acid assay; conditions: Bos taurus
Topoisomerase I = target: T1, Topoisomerase I (Bos taurus, UniProt Q2HPH0); test: Inhibition of calf thymus topoisomerase 1-mediated relaxation of supercoiled pBR322 DNA measured after 30 mins by agarose gel electrophoresis method
T1 sequence (Q2HPH0 whole entry): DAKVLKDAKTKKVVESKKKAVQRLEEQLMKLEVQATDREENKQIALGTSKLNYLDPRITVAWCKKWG

MCF7 [7] = test: Induction of apoptosis in human MCF7 cells assessed as late apoptotic cells at 0.5 uM after 48 hrs by Annexin-V-FITC/propidium iodide staining based flow cytometry (reference value: 0.06%); assay type: functional
MCF7 [8] = test: Cell cycle arrest in human MCF7 cells assessed as accumulation at subG1 phase at 1 uM after 48 hrs by propidium iodide staining based flow cytometry (reference value: 3.04%); assay type: functional
MCF7 [9] = test: Induction of apoptosis in human MCF7 cells assessed as DNA fragmentation at 1 uM after 48 hrs by Hoechst 33342 staining based confocal microscopic analysis; assay type: functional, cell-based
MCF7 [10] = test: Induction of apoptosis in human MCF7 cells assessed as early apoptotic cells at 1 uM after 48 hrs by Annexin-V-FITC/propidium iodide staining based flow cytometry (reference value: 0.09%); assay type: functional
Calf thymus DNA [11] = test: Binding affinity to calf thymus DNA at 50 uM by UV-Vis absorption spectrophotometric method; assay type: nucleic-acid assay; conditions: Bos taurus
Calf thymus DNA [12] = test: Binding affinity to calf thymus DNA assessed as hypochromic shift at 50 uM by UV-Vis absorption spectrophotometric method; assay type: nucleic-acid assay; conditions: Bos taurus
MCF7 [13] = test: Induction of apoptosis in human MCF7 cells assessed as viable cells at 0.5 uM after 48 hrs by Annexin-V-FITC/propidium iodide staining based flow cytometry (reference value: 96.18%); assay type: functional; conditions: MCF7, 48 h, read-out: Activity
MCF7 [14] = test: Induction of apoptosis in human MCF7 cells assessed as increase in number of wrinkled cells at 1 uM after 48 hrs by Hoechst 33342 staining based confocal microscopic analysis; assay type: functional, cell-based
MCF7 [15] = test: Induction of apoptosis in human MCF7 cells assessed as late apoptotic cells at 1 uM after 48 hrs by Annexin-V-FITC/propidium iodide staining based flow cytometry (reference value: 0.06%); assay type: functional
MCF7 [16] = test: Induction of apoptosis in human MCF7 cells assessed as viable cells at 1 uM after 48 hrs by Annexin-V-FITC/propidium iodide staining based flow cytometry (reference value: 96.18%); assay type: functional; conditions: MCF7, 48 h, read-out: Activity
NIH3T3 [17] = test: Cytotoxicity against mouse NIH/3T3 cells assessed as cell death at 1 uM after 24 hrs by propidium iodide/Hoechst 33342 staining based fluorescence microscopic analysis; conditions: nih3t3, 24 h
MCF7 [18] = test: Induction of apoptosis in human MCF7 cells assessed as necrotic cells at 0.5 uM after 48 hrs by Annexin-V-FITC/propidium iodide staining based flow cytometry (reference value: 3.67%); assay type: functional
MCF7 [19] = test: Cell cycle arrest in human MCF7 cells assessed as accumulation at S-phase at 1 uM after 48 hrs by propidium iodide staining based flow cytometry (reference value: 15.64%); assay type: functional
MCF7 [20] = test: Cytotoxicity against human MCF7 cells assessed as cell death at 1 uM after 24 hrs by propidium iodide/Hoechst 33342 staining based fluorescence microscopic analysis; assay type: functional
Calf thymus DNA [21] = test: Binding affinity to calf thymus DNA assessed as DNA winding at 1:1 to 1:2 ratio of DNA to compound by circular dichroism analysis; assay type: nucleic-acid assay; conditions: Bos taurus
MCF7 [22] = test: Induction of apoptosis in human MCF7 cells assessed as necrotic cells at 1 uM after 48 hrs by Annexin-V-FITC/propidium iodide staining based flow cytometry (reference value: 3.67%); assay type: functional
MCF7 [23] = test: Cell cycle arrest in human MCF7 cells assessed as accumulation at subG1 phase at 0.5 uM after 48 hrs by propidium iodide staining based flow cytometry (reference value: 3.04%); assay type: functional
Calf thymus DNA [24] = test: Binding affinity to calf thymus DNA assessed as fluorescence quenching at 10 uM by spectrofluorimetric method; assay type: nucleic-acid assay; conditions: Bos taurus
MCF7 [25] = test: Cell cycle arrest in human MCF7 cells assessed as accumulation at G1 phase at 1 uM after 48 hrs by propidium iodide staining based flow cytometry (reference value: 45.98%); assay type: functional
MCF7 [26] = test: Cell cycle arrest in human MCF7 cells assessed as accumulation at G1 phase at 0.5 uM after 48 hrs by propidium iodide staining based flow cytometry (reference value: 45.98%); assay type: functional
MCF7 [27] = test: Induction of apoptosis in human MCF7 cells assessed as early apoptotic cells at 0.5 uM after 48 hrs by Annexin-V-FITC/propidium iodide staining based flow cytometry (reference value: 0.09%); assay type: functional
MCF7 [28] = test: Cell cycle arrest in human MCF7 cells assessed as accumulation at G2/M-phase at 0.5 uM after 48 hrs by propidium iodide staining based flow cytometry (reference value: 33.65%); assay type: functional

In the case of `COc1ccc(OC)c(/C=C/C(=O)NCc2cc3c([nH]c4ccccc43)c(-c3cccc(F)c3)n2)c1`, the pIC50 (HeLa) was 7.66, the pIC50 (NIH3T3 [1]) was 7.40 and the pIC50 (MCF7 [2]) was 7.76. For the same compound, the pIC50 (A549) was 7.65 and the pIC50 (B16) was 7.70.

In the case of `COc1cc(-c2nc(CNC(=O)/C=C/c3ccc(F)cc3)cc3c2[nH]c2ccccc23)cc(OC)c1OC`, the pIC50 (HeLa) was 7.70, the pIC50 (NIH3T3 [1]) was 7.37 and the pIC50 (MCF7 [2]) was 7.79. The pIC50 (A549) was 7.73 and the pIC50 (B16) was 7.76.

`COc1cc(-c2nc(CNC(=O)/C=C/c3ccc(Cl)c(Cl)c3)cc3c2[nH]c2ccccc23)cc(OC)c1OC` was tested, and the pIC50 (HeLa) was 7.59, the pIC50 (NIH3T3 [1]) was 7.41 and the pIC50 (MCF7 [2]) was 7.76. For the same compound, the pIC50 (A549) was 7.69 and the pIC50 (B16) was 7.77.

`COc1cc(-c2nc(CNC(=O)/C=C/c3cc(F)cc(F)c3)cc3c2[nH]c2ccccc23)cc(OC)c1OC` was tested, and the pIC50 (HeLa) was 7.62, the pIC50 (NIH3T3 [1]) was 7.44 and the pIC50 (MCF7 [2]) was 7.71. For the same compound, the pIC50 (A549) was 7.67 and the pIC50 (B16) was 7.62.

Work on `COc1cc(/C=C/C(=O)NCc2cc3c([nH]c4ccccc43)c(-c3cccc(F)c3)n2)cc(OC)c1OC` yielded a pIC50 (HeLa) of 7.64, a pIC50 (NIH3T3 [1]) of 7.44 and a pIC50 (MCF7 [2]) of 7.79. It also gave a pIC50 (A549) of 7.75 and a pIC50 (B16) of 7.70.

`COc1cc(-c2nc(CNC(=O)/C=C/c3cccc(O)c3)cc3c2[nH]c2ccccc23)cc(OC)c1OC` was tested, and the pIC50 (HeLa) was 7.63, the pIC50 (NIH3T3 [1]) was 7.42 and the pIC50 (MCF7 [2]) was 7.77. It also gave a pIC50 (A549) of 7.71 and a pIC50 (B16) of 7.66.

`C=CCNC(=O)/C=C/c1cccc(O)c1` was tested, and the pIC50 (HeLa) was less than 4.30, the pIC50 (NIH3T3 [1]) was less than 4.30 and the pIC50 (MCF7 [2]) was less than 4.30. For the same compound, the pIC50 (A549) was less than 4.30.

In the case of `COc1cc(/C=C/C(=O)NCc2cc3c([nH]c4ccccc43)c(-c3cc(OC)c(OC)c(OC)c3)n2)ccc1O`, the pIC50 (HeLa) was 7.59, the pIC50 (NIH3T3 [1]) was 7.37 and the pIC50 (MCF7 [2]) was 7.76. It also gave a pIC50 (A549) of 7.74 and a pIC50 (B16) of 7.72.

`CC[n+]1c(-c2ccccc2)c2cc(N)ccc2c2ccc(N)cc21` was tested, and the Activity (Calf thymus DNA [3]) was “Active”.

In the case of `O=C(/C=C/c1ccc(Cl)cc1)NCc1cc2c([nH]c3ccccc32)c(-c2cccc(F)c2)n1`, the pIC50 (HeLa) was 7.72, the pIC50 (NIH3T3 [1]) was 7.36 and the pIC50 (MCF7 [2]) was 7.74. It also gave a pIC50 (A549) of 7.71 and a pIC50 (B16) of 7.74.

Compound `COc1ccc(-c2nc(CNC(=O)/C=C/c3ccc(Cl)cc3)cc3c2[nH]c2ccccc23)cc1` has an Activity (MCF7 [4]) of 17.6%, an Activity (MCF7 [5]) of 37.42% and an Activity (Calf thymus DNA [6]) of 287 to 369 nm. The pIC50 (Topoisomerase I) was 7.85, the Activity (MCF7 [7]) was 0.81% and the Activity (MCF7 [8]) was 2.97%. The pIC50 (HeLa) was 7.67, the Activity (MCF7 [9]) was “Active” and the Activity (MCF7 [10]) was 6.69%. It also gave a K (Calf thymus DNA [11]) of 3 ×10⁵ /M, a pIC50 (NIH3T3 [1]) of 7.42 and an Activity (Calf thymus DNA [12]) of 6 nm. For the same compound, the viability at 0.5 µM (MCF7 [13]) was 91.2%, the Activity (MCF7 [14]) was “Active” and the pIC50 (MCF7 [2]) was 7.85. For the same compound, the Activity (MCF7 [15]) was 2.43%, the pIC50 (A549) was 7.72 and the viability at 1 µM (MCF7 [16]) was 84.8%. For the same compound, the Activity (NIH3T3 [17]) was “Non-Toxic”, the Activity (MCF7 [18]) was 1.29% and the Activity (MCF7 [19]) was 16.72%. The Activity (Calf thymus DNA [3]) was “Active”, the Activity (MCF7 [20]) was “Active” and the Activity (Calf thymus DNA [21]) was “Active”. For the same compound, the Activity (MCF7 [22]) was 6.04%, the pIC50 (B16) was 7.78 and the Activity (MCF7 [23]) was 5.4%. For the same compound, the Activity (Calf thymus DNA [24]) was “Active”, the Activity (MCF7 [25]) was 42.38% and the Activity (MCF7 [26]) was 42.32%. It also gave an Activity (MCF7 [27]) of 6.65% and an Activity (MCF7 [28]) of 33.1%.

Work on `O=C(/C=C/c1ccc(F)cc1)NCc1cc2c([nH]c3ccccc32)c(-c2cccc(F)c2)n1` yielded a pIC50 (HeLa) of 7.61, a pIC50 (NIH3T3 [1]) of 7.51 and a pIC50 (MCF7 [2]) of 7.78. For the same compound, the pIC50 (A549) was 7.79 and the pIC50 (B16) was 7.77.

`COc1ccc(-c2nc(CNC(=O)/C=C/c3cc(F)cc(F)c3)cc3c2[nH]c2ccccc23)cc1` gave a pIC50 (HeLa) of 7.61, a pIC50 (NIH3T3 [1]) of 7.43 and a pIC50 (MCF7 [2]) of 7.76. For the same compound, the pIC50 (A549) was 7.70 and the pIC50 (B16) was 7.62.

`COc1ccc(-c2nc(CNC(=O)/C=C/c3ccc(F)cc3)cc3c2[nH]c2ccccc23)cc1` showed a pIC50 (HeLa) of 7.64, a pIC50 (NIH3T3 [1]) of 7.43 and a pIC50 (MCF7 [2]) of 7.74. It also gave a pIC50 (A549) of 7.70 and a pIC50 (B16) of 7.66.
